Where two headings read alike, the source gives them in different places. Ends that are not written are not given here.
How the values were obtained:
[1] = system: Acinetobacter baumannii ATCC BAA-1797 (MDR); experiment: microbe, parasite or virus in culture; type: cell-based; conditions: ATCC BAA-1797
Summary of the method: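 Two-fold dilution series of each peptide (highest final 32 mcg/mL) were inoculated with standardized bacteria per CLSI in MHB II containing 0.002% P80. After 16–20 hrs at 35° C., the lowest concentration without visible growth was taken as the MIC.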

[2] = system: Staphylococcus aureus (n = 104); experiment: microbe, parasite or virus in culture; type: cell-based
Experimental: (§1) The clinical isolates were obtained from USA hospitals. […] Plates were incubated at 35° C. overnight.

[3] = system: Enterobacter spp. (n = 102); type: cell-based, Enterobacter aerogenes and E. cloacae
Experimental: as §1

[4] = rat; for AUCinf / AUClast / Cmax / Extrapolated / MRTlast / T1/2: Mean; for Tmax: individual animals
Experimental: Male Sprague-Dawley Rats will be received from an approved vendor with a single jugular vein cannula (JVC) and allowed to acclimate to the Test Facility for at least 2 days prior to study start. Animals will be weighed prior to dosing. No fasting will be required.
Intravenous administration will be via 30 minute infusion into a JVC. Following dosing, the catheter will be flushed with ˜0.5 mL saline and tied off to prevent re-access.
Serial blood samples will be collected via jugular vein cannula (JVC) or by another approved method if patency is lost. The final blood samples will be obtained via direct cardiac puncture following inhalation anesthesia.
Blood samples will be collected into K2EDTA tubes and stored on wet ice. Whole blood will be processed to plasma by centrifugation (3500 rpm at 5° C.) within 30 minutes of collection. Plasma samples will be transferred into 96 well plates (matrix tubes) and stored at −80° C. until analysis. Administered doses will be determined gravimetrically.
Prior to extraction, a known concentration of a mass-adjusted internal standard (IS) will be added to assess recovery and allow for quantitation. Purified samples will be further subjected to high-performance liquid chromatography (HPLC) using C18 300 or 130 angstrom columns prior to MS/MS analysis. Multiple charge states will be observed by MS, so MS/MS will be employed to enable multiple reaction monitoring (MRM) analyses to determine the most MRM transitions with the highest signal-to-noise gain. Compound plasma concentrations will be determined by comparing to and compensating with co-purified IS peak intensity and validated calibrated standard curves.
Pharmacokinetic parameters will be calculated using non-compartmental methods as implemented in the Phoenix® WinNonlin® ver. 6.3 comprehensive TK/PK analysis software program (Pharsight Corporation; Mountain View, Calif.) using an IV infusion model. Pharmacokinetic analysis will be conducted using a 30-minute intravenous infusion time. Therefore, 30 minutes will be added to each sample time point postdose to obtain nominal time for TK analysis. Nominal times and dosage levels will be used for all calculations. Values below the lower limit of quantitation (BLQ) will be assigned a value of zero for the pharmacokinetic calculations. Microsoft® Excel® 2013 will be used for receipt of bioanalytical data, minor formatting, including setting BLQ values to “0”, transfer into WinNonlin® for PK analysis, and calculation of the mean when an approximated value will be excluded. All plasma concentration data from all animals will be included in the analysis. Graphical presentations will be performed using Microsoft® Excel® 2013.

RRWVRRVRRVWRRVVRVVRRWVRR-NH2 (C-terminus assumed) [SEQ ID NO: 1]
MIC [1]: 4 µg/mL | MIC range ([2]; S. aureus MRSA isolates, n 104): 1 to 16 µg/mL | MIC range ([2]; Staphylococcus aureus (n = 104), all methicillin-resistant): 1 to 16 µg/mL | MIC50 ([2]; n = 104): 4 µg/mL | Mode (MIC) ([2]; n = 104): 4 µg/mL | Mode (MIC) [3]: 16 µg/mL | AUCinf ([4]; Group 4 IV infusion 10 mg/kg): 80486 ng·h/mL | AUClast ([4]; Group 4 IV infusion 10 mg/kg): 80339 ng·h/mL | Cmax ([4]; Group 4 IV infusion 10 mg/kg): 67192 ng/mL | Extrapolated ([4]; Group 4 IV infusion 10 mg/kg): 0.186% | MRTlast ([4]; Group 4 IV infusion 10 mg/kg): 1.18 h | T1/2 ([4]; Group 4 IV infusion 10 mg/kg): 4.07 h | Tmax ([4]; Group 4 IV infusion 10 mg/kg): 0.5333 h | AUCinf ([4]; IV infusion 1 mg/kg): 787 ng·h/mL | AUClast ([4]; IV infusion 1 mg/kg): 757 ng·h/mL | Cmax ([4]; IV infusion 1 mg/kg): 1271 ng/mL | Extrapolated ([4]; IV infusion 1 mg/kg): 3.28% | MRTlast ([4]; IV infusion 1 mg/kg): 1.67 h | T1/2 ([4]; IV infusion 1 mg/kg): 6.16 h | Tmax ([4]; IV infusion 1 mg/kg): 0.5333 h | AUCinf ([4]; IV infusion 5 mg/kg): 25791 ng·h/mL | AUClast ([4]; IV infusion 5 mg/kg): 25683 ng·h/mL | Cmax ([4]; IV infusion 5 mg/kg): 30409 ng/mL | Extrapolated ([4]; IV infusion 5 mg/kg): 0.424% | MRTlast ([4]; IV infusion 5 mg/kg): 1.03 h | T1/2 ([4]; IV infusion 5 mg/kg): 5.43 h | Tmax ([4]; IV infusion 5 mg/kg): 0.5333 h

Source: US20220249599A1, “TREATMENT OF IMPLANTS WITH ENGINEERED ANTIMICROBIAL AMPHIPHILIC PEPTIDES” (priority 2018, published 2022)
